Test results taken from patent US9725442B2, “Heterocyclic derivative having PGD2 receptor antagonist activity” (Shionogi & Co., Ltd., priority 2011, dated 2017).
pIC50, pKi: −log10 of the molar value. Read-outs that look alike come from different tables or passages of the source.

Legend:
[1] = biological target: DP receptor (Homo sapiens (Human), UniProt Q13258); test: DP inhibitory activity in human platelets (PGD2-induced cAMP increase in platelet rich plasma, HTRF); assay type: cell-based; settings: IC50 of PGD2 (300 nM)-induced cAMP increase, read-out: PRP
DP receptor, sequence (Q13258 whole entry): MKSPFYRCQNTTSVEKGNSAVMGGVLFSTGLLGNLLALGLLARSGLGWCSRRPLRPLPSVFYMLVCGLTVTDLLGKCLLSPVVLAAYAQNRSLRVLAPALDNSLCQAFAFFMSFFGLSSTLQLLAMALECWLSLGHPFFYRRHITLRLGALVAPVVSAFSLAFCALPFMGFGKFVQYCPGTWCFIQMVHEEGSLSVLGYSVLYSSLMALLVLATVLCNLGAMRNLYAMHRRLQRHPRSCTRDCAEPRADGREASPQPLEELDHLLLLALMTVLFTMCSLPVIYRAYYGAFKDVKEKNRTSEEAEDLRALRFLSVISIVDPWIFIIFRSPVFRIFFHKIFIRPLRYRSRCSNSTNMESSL
Procedure: Thirty milliliter of blood was drown from healthy human into a syringe preloaded with 1/9 volume of 3.8% citrate sodium. The blood was centrifuged with 180 g for 10 min at room temperature and the upper plasma layer was collected as platelet rich plasma (PRP). The PRP was transferred to plate and treated with 3-isobutyl-1-methylxanthin (IBMX; […]) for 5 min. Then the compounds of the present invention were added to the plate and after 10 min, 300 nM of PGD2 was added. The reaction was stopped with 1 mmol/l hydrogenchlolide after 2 min of PGD2 addition, and platelet was lysed by adding 12% Triton X-100. The concentration of cAMP in the supernatant of the platelet lysate was quantified using homogenous time resolved fluorescence (HTRF). Inhibition ratio was defined by cAMP increase with and without compound, and […] for each compound was calculated from inhibitory curve.

[2] = biological target: Human DP1 receptor (Homo sapiens (Human), UniProt Q13258); test: Human DP1 inhibitory activity in DP1-expressing cell (PGD2-induced cAMP); assay type: cell-based
Human DP1 receptor, sequence (Q13258 whole entry): as above
Procedure: Compounds were categorized as AA (cAMP is less than 100 nM) and A (cAMP is more than 100 nM and less than 5000 nM) as shown in Table 99 and 100.

[3] = biological target: CRTH2 (Homo sapiens (Human), UniProt Q9Y5Y4); test: CRTH2 receptor binding inhibitory activity ([3H]-PGD2 displacement, membranes of CRTH2-expressing K562 cell); settings: [3H]-PGD2 displacement, membrane of CRTH2-expressing K562 cell, read-out: Ki
CRTH2, sequence (Q9Y5Y4 whole entry): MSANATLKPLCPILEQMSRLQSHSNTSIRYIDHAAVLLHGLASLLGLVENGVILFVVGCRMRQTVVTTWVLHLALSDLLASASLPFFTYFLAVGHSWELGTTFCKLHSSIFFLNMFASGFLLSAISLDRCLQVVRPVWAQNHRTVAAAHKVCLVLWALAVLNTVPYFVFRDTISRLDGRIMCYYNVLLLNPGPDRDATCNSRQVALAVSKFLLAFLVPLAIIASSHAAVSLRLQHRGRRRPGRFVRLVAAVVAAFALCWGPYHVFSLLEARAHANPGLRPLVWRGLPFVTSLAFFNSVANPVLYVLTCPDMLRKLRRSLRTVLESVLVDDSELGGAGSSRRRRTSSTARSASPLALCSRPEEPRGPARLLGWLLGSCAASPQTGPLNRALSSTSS
Summary of the method: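 Incubation ran 60 min at room temperature using 20 μg/well membrane from CRTH2-expressing K562 cells in pH 7.4 Tris/HCl (50 mM) with 10 mM MgCl2.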

[4] = biological target: CYP3A4 enzyme expressed in Escherichia coli (Homo sapiens (Human), UniProt P08684); test: CYP3A4 fluorescent MBI test; assay type: in vitro ADME; settings: pre-reaction time 0 or 30 minutes, substrate 7-BFC; read-out: CYP3A4 MBI, difference between IC50 values with and without preincubation
CYP3A4 enzyme expressed in Escherichia coli, sequence (P08684 whole entry): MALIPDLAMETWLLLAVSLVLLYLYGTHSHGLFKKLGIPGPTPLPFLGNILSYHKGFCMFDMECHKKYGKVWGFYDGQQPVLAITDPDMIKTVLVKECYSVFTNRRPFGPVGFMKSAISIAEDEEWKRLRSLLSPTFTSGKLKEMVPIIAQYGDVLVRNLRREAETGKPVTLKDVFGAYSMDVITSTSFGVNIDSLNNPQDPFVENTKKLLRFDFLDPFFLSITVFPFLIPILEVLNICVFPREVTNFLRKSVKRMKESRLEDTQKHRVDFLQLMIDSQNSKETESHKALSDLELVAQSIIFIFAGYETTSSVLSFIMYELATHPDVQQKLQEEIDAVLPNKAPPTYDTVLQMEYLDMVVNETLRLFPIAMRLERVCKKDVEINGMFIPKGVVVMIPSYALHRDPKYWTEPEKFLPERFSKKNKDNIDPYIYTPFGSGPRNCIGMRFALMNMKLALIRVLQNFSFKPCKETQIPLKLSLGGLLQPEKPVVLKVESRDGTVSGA
Procedure: The CYP3A4 fluorescent MBI test is a test of investigating enhancement of CYP3A4 inhibition of a compound by a metabolism reaction, and the test was performed using, as CYP3A4 enzyme expressed in Escherichia coli and employing, as an index, a reaction in which 7-benzyloxytrifluoromethylcoumarin (7-BFC) is debenzylated by the CYP3A4 enzyme to produce a metabolite, 7-hydroxytrifluoromethylcoumarin (HFC) emitting fluorescent light.
The reaction conditions were as follows: substrate, 5.6 μmol/L 7-BFC; pre-reaction time, 0 or 30 minutes; reaction time, 15 minutes; reaction temperature, 25° C. (room temperature); CYP3A4 content (expressed in Escherichia coli), at pre-reaction […], at reaction […] (at 10-fold dilution); concentration of a compound of the present, 0.625, 1.25, 2.5, 5, 10, 20 μmol/L (six points).
An enzyme in a K-Pi buffer (pH 7.4) and a compound solution of the present invention as a pre-reaction mixture were added to a 96-well plate at the composition of the pre-reaction, a part of it was transferred to another 96-well plate so that it was 1/10 diluted by a substrate in a K-Pi buffer, NADPH as a co-factor was added to initiate a reaction as an index (without preincubation) and, after a predetermined time of a reaction, acetonitrile/0.5 mol/L Tris(trishydroxyaminomethane)=4/1 (V/V) was added to stop the reaction. In addition, NADPH was added to a remaining preincubation solution to initiate a preincubation (with preincubation) and, after a predetermined time of a preincubation, a part was transferred to another plate so that it was 1/10 diluted with a substrate and a K-Pi buffer to initiate a reaction as an index. After a predetermined time of a reaction, acetonitrile/0.5 mol/L Tris(trishydroxyaminomethane)=4/1 (V/V) was added to stop the reaction. For the plate on which each index reaction had been performed, a fluorescent value of 7-HFC which is a metabolite was measured with a fluorescent plate reader. (Ex=420 nm, Em=535 nm).

[5] = IC50 of PGD2 (60 nM)-induced cAMP increase, human DP1 receptor expressing Jurkut cell
[6] = category of cAMP IC50, human DP1 receptor expressing Jurkut cell
[7] = CRTH2 receptor binding, categorized AAAA/AAA

SMILES | pIC50 [1] | pIC50 [2, 5] | pIC50 [2, 6] | pKi [3, 7] | pKi [3] | difference in IC50 with vs without preincubation [4] [nM]
CCOc1ncc(S(=O)(=O)N2C[C@@H](C)[C@@H](n3nc(CC(=O)O)c4ccc(F)cc43)C2)s1 [Compound I-166] | 7.26 | 7.49 | > 7.00 | > 7.00 | 7.92 | 
CCOc1ccc(S(=O)(=O)N2C[C@H](n3nc(CC(=O)O)c4ccccc43)C[C@@H]2C#N)cc1 [Compound I-322] | 7.92 | 7.54 | > 7.00 | 5.30 to 7.00 | 6.57 | 
CCOc1ccc(S(=O)(=O)N2C[C@@H](C)[C@@H](n3nc(CC(=O)O)c4ccccc43)C2)c(N)c1 [Compound I-325] | 6.68 | 7.62 | > 7.00 | > 7.00 | 7.55 | 
CCOc1ccc(S(=O)(=O)N2C[C@@H](C)[C@@H](n3nc(CC(=O)O)c4ccccc43)C2)c(F)c1 [Compound I-245] | 7.17 | 7.57 | > 7.00 | > 7.00 |  | 
CCOc1ccc(S(=O)(=O)N2C[C@@H](C)[C@@H](n3nc(CC(=O)O)c4cc(C#N)ccc43)C2)cn1 [Compound I-159] | 7.17 | 6.85 | 5.30 to 7.00 | 5.30 to 7.00 |  | 
CO/N=C/[C@H]1C[C@@H](n2nc(CC(=O)O)c3ccc(F)cc32)CN1S(=O)(=O)c1ccc(OC(C)C)cc1 [Compound I-19] | 6.59 | 7.25 | > 7.00 | > 7.00 | 7.21 | 
CCOc1ccc(S(=O)(=O)N2C[C@@H](C)[C@@H](n3nc(CC(=O)O)c4ccc(N5CCCC5)cc43)C2)cn1 [Compound I-222] | 6.85 | 7.02 | > 7.00 | 5.30 to 7.00 | 7.00 | 
CCOc1ccc(S(=O)(=O)N2C[C@@H](C)[C@@H](n3nc(CC(=O)O)c4ccccc43)C2)s1 [Compound I-177] | 7.36 | 7.24 | > 7.00 | > 7.00 | 7.82 | 
C[C@@H]1CN(S(=O)(=O)c2ccc(OC(F)(F)F)cc2)C[C@@H]1n1nc(CC(=O)O)c2ccc(Cl)cc21 [Compound I-142] | 7.04 | 8.00 | > 7.00 | > 7.00 | 7.96 | 
CC(C)Oc1ccc(S(=O)(=O)N2C[C@@H](C)[C@@H](n3cc(CC(=O)O)c4ccc(F)cc43)C2)cc1 [Compound I-144] | 7.09 | 8.33 | > 7.00 | > 7.00 | 8.51 | 
CCOc1ccc(S(=O)(=O)N2C[C@@H](C)[C@@H](n3nc(C4(C(=O)O)CC4)c4ccccc43)C2)cc1 [Compound I-336] | 6.74 | 7.46 | > 7.00 | 5.30 to 7.00 | 6.36 | 
CCOc1ccc(S(=O)(=O)N2C[C@@H](C)[C@@H](n3nc(CC(=O)O)c4c(F)cccc43)C2)cc1 [Compound I-150] | 7.39 | 7.70 | > 7.00 | > 7.00 | 7.00 | 
CCOc1ccc(S(=O)(=O)N2C[C@@H](C)[C@@H](n3cc(CC(=O)O)c4ccc(C#N)cc43)C2)cc1 [Compound I-256] |  |  | > 7.00 | > 7.00 |  | ≤ 3000
CCOc1ccc(S(=O)(=O)N2C[C@@H](C)[C@@H](n3nc(CC(=O)O)c4c(C)cccc43)C2)cc1 [Compound I-205] | 7.15 | 7.89 | > 7.00 | 5.30 to 7.00 |  | 
